Results reported in PMC9317966, “Structure-function analysis of the AMPK activator SC4 and identification of a potent pan AMPK activator” (Biochemical Journal, 2022).

What was measured:
human GST-AMPK α2β2γ1 = biological target: T1, human GST-AMPK α2β2γ1 (Homo sapiens, UniProt O43741+P54646); test: Radiolabel SAMS kinase assay, GST-AMPK from HEK293T/17 cells immobilised on glutathione-Sepharose; format: biochemical; conditions: 1 µM compound
T1 construct: triply transfected with full-length AMPK α1 or α2 (NH2-terminal GST fusion, pDEST27 vector); full-length AMPK α1 or α2 (NH2-terminal GST fusion, pDEST27 vector), β1 or β2 (COOH-terminal FLAG fusion, pcDNA3.1 vector); FLAG (C); made in house; host or cells: HEK293T/17 cells, transient triple transfection
Text: (§1) We generated a series of compounds to investigate whether modification of the SC4 2-hydroxybiphenyl LHS fragment affects isoform selectivity, some of which (MSG008-MSG011) are presented in Table 1. We also synthesised compound MSG012 (example I-3-54 [32]), which was reported to activate α2β2γ1 with ∼100-fold greater potency compared with α1β1γ1. MSG012 differs from SC4 by substitution of the 2-hydroxyphenyl LHS fragment with 3-cyclohexen-4-yl-1-carboxylic acid, and 2-methylbenzoic acid RHS fragment with 1-hydroxy-N,N-dimethylcyclohexan-4-yl-1-carboxamide. Our initial screen involved measuring the activity of recombinant human GST-AMPK complexes expressed in HEK293T/17 cells and immobilised on glutathione-Sepharose (Supplementary Figure S1). Enzyme activity was measured by radiolabelling the synthetic SAMS peptide substrate in the absence or presence of 1 µM compound. Consistent with our previous characterisation, SC4 activated α1β1γ1, α2β1γ1 and α2β2γ1 >2.3-fold, and weakly activated α1β2γ1 1.3-fold (Figure 1A). […] The γ isoform had little influence on AMPK activation by MSG011 as most γ2 and γ3 complexes were activated >2.2-fold at 1 µM, with α1β2γ2 being the only exception (1.6-fold activation). […] Accordingly, MSG010, MSG011 and MSG012 can be classified as pan AMPK activators.
(§2) Adherent HEK293T/17 cells at ∼50% confluency were triply transfected with full-length AMPK α1 or α2 (NH2-terminal GST fusion, pDEST27 vector), β1 or β2 (COOH-terminal FLAG fusion, pcDNA3.1 vector), and γ1, γ2 or γ3 (NH2-terminal HA fusion, pMT2 vector) in the presence of FuGENE HD transfection reagent (Promega) as per the manufacturers protocol. Cells were harvested 48 hours post-transfection by first gently washing in ice cold phosphate buffered saline (PBS; Sigma–Aldrich), then scraping in ice cold lysis buffer (50 mM TRIS pH 7.5, 150 mM NaCl, 10% (v/v) glycerol, 50 mM NaF, 5 mM sodium pyrophosphate, 1% (v/v) Triton X-100, cOmplete protease inhibitor cocktail). Lysates were clarified by centrifugation (16 000g, 3 min, 4°C), flash frozen in liquid N2 and stored at −80°C until analysis. For radioactive kinase assays, AMPK was immobilised on glutathione Sepharose 4B resin (GE Healthcare) by incubation with lysates for 1.5 h at 4°C. Following centrifugation (1000g, 3 min, 4°C), the resin was washed twice in purification buffer (50 mM HEPES pH 7.4, 150 mM NaCl, 10% (v/v) glycerol, 0.02% (v/v) Tween-20), once in 50 mM HEPES pH 7.4 with 0.02% (v/v) Tween-20, then resuspended to a 50% slurry with 50 mM HEPES pH 7.4 and 10 µl added to the activity assays. For in solution kinase assays, α1β1γ1 AMPK was eluted from glutathione-Sepharose by incubating with purification buffer supplemented with 40 mM reduced glutathione (Sigma–Aldrich).
(§3) AMPK activity was determined by phosphorylation of the SAMS peptide (Purar Chemicals, sequence: NH2-HMRSAMSGLHLVKRR-COOH) in a 25 µl reaction volume containing 100 µM SAMS peptide, 5 mM MgCl2, 200 µM ATP, [γ-^32P]-ATP (PerkinElmer) and assay buffer (50 mM HEPES pH 7.4, 1 mM DTT and 0.02% (v/v) Tween-20) and purified AMPK. Phosphotransferase activity was conducted at 30°C for 10 min and reactions were quenched by spotting 15 µl onto phosphocellulose ion-exchange chromatography paper (made in-house), followed by repeated washes in 1% H3PO4 (Merck Millipore). Ultima Gold liquid scintillation fluid (5 ml; PerkinElmer) was added to vials containing dried phosphocellulose papers, and the level of ^32P-transfer to the SAMS peptide was determined using a Tri-Carb 2900TR liquid scintillation counter (PerkinElmer).

human GST-AMPK α1β1γ1 = biological target: T2, human GST-AMPK α1β1γ1 (Homo sapiens, UniProt Q13131+Q9Y478); test: as above; format: biochemical; conditions: 1 µM compound
T2 construct: triply transfected with full-length AMPK α1 or α2 (NH2-terminal GST fusion, pDEST27 vector); full-length AMPK α1 or α2 (NH2-terminal GST fusion, pDEST27 vector), β1 or β2 (COOH-terminal FLAG fusion, pcDNA3.1 vector); FLAG (C); made in house; host or cells: HEK293T/17 cells, transient triple transfection
Text: as §1, §2, §3

human GST-AMPK α2β1γ1 = biological target: T3, human GST-AMPK α2β1γ1 (Homo sapiens, UniProt P54646+Q9Y478); test: as above; format: biochemical; conditions: 1 µM compound
T3 construct: triply transfected with full-length AMPK α1 or α2 (NH2-terminal GST fusion, pDEST27 vector); full-length AMPK α1 or α2 (NH2-terminal GST fusion, pDEST27 vector), β1 or β2 (COOH-terminal FLAG fusion, pcDNA3.1 vector); FLAG (C); made in house; host or cells: HEK293T/17 cells, transient triple transfection
Text: as §1, §2, §3

human GST-AMPK α1β2γ1 = biological target: T4, human GST-AMPK α1β2γ1 (Homo sapiens, UniProt O43741+Q13131); test: as above; format: biochemical; conditions: 1 µM compound
T4 construct: triply transfected with full-length AMPK α1 or α2 (NH2-terminal GST fusion, pDEST27 vector); full-length AMPK α1 or α2 (NH2-terminal GST fusion, pDEST27 vector), β1 or β2 (COOH-terminal FLAG fusion, pcDNA3.1 vector); FLAG (C); made in house; host or cells: HEK293T/17 cells, transient triple transfection
Text: as §1, §2, §3

[1] = test system: AMPK β1-Ser108 exchanged for Ala; design: method as in PMID 24352254, PMID 29657085; conditions: cited from earlier work

T2 sequence (Q13131 whole entry, the tested form may be a part): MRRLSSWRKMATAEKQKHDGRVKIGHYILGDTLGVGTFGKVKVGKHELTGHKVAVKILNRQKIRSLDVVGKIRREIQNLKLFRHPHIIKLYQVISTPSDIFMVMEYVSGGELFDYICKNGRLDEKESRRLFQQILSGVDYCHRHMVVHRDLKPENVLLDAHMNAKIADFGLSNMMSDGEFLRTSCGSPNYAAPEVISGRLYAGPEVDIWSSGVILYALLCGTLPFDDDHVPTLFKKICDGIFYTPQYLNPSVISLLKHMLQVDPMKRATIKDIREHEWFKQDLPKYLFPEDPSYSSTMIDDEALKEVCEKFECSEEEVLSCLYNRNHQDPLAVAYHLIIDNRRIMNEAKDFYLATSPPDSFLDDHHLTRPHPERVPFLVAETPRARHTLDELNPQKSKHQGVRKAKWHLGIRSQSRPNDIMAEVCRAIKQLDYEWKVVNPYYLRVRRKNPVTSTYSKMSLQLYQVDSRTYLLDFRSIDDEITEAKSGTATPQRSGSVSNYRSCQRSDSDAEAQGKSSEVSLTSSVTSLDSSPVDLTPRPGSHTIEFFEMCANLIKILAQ
T2 sequence (Q9Y478 whole entry, the tested form may be a part): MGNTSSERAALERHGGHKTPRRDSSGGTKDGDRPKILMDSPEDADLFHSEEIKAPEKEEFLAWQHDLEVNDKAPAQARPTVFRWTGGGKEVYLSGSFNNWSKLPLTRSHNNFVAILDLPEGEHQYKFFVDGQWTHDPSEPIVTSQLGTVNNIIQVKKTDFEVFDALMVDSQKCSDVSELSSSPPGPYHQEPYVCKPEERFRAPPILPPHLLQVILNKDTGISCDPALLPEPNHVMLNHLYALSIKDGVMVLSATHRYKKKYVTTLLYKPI
T2 sequence (P54619 whole entry partner, the tested form may be a part): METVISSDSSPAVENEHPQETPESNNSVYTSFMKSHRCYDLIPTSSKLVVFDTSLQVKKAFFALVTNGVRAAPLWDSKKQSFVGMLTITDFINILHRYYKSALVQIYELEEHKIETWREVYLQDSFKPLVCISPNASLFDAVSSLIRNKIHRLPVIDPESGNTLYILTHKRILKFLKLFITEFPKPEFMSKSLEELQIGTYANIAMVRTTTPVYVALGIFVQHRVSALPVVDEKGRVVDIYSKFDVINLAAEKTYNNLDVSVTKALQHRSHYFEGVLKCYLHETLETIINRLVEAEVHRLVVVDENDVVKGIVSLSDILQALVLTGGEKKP
T4 sequence (Q13131 whole entry, the tested form may be a part): as the sequence (Q13131 whole entry, the tested form may be a part) above
T4 sequence (O43741 whole entry, the tested form may be a part): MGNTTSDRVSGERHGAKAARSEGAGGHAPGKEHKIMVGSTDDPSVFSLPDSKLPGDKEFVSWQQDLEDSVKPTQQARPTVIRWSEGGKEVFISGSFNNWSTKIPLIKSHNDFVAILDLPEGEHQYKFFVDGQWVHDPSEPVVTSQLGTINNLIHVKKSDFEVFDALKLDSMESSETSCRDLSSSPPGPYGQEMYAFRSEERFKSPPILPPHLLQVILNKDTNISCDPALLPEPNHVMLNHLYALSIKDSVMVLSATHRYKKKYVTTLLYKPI
T4 sequence (P54619 whole entry partner, the tested form may be a part): as the sequence (P54619 whole entry partner, the tested form may be a part) above
T3 sequence (P54646 whole entry, the tested form may be a part): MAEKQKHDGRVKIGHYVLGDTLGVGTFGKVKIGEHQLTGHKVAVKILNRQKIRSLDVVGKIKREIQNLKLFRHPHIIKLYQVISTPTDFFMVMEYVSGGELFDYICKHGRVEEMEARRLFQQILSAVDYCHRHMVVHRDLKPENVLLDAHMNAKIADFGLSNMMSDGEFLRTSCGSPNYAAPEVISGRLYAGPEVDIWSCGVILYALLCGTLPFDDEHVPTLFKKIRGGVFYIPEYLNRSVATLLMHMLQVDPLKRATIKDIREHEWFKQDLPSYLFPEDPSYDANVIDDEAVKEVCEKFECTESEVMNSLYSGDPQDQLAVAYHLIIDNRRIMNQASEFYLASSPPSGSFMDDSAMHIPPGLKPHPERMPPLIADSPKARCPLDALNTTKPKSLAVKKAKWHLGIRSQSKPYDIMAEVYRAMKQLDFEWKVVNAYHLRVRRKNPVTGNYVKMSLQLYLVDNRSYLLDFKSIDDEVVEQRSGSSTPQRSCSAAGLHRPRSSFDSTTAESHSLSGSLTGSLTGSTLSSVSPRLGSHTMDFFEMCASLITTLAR
T3 sequence (Q9Y478 whole entry, the tested form may be a part): as the sequence (Q9Y478 whole entry, the tested form may be a part) above
T3 sequence (P54619 whole entry partner, the tested form may be a part): as the sequence (P54619 whole entry partner, the tested form may be a part) above
T1 sequence (P54646 whole entry, the tested form may be a part): as the sequence (P54646 whole entry, the tested form may be a part) above
T1 sequence (O43741 whole entry, the tested form may be a part): as the sequence (O43741 whole entry, the tested form may be a part) above
T1 sequence (P54619 whole entry partner, the tested form may be a part): as the sequence (P54619 whole entry partner, the tested form may be a part) above

SMILES | fold AMPK activation relative to vehicle (human GST-AMPK α2β2γ1) | fold AMPK activation relative to vehicle (human GST-AMPK α1β1γ1) | fold AMPK activation relative to vehicle (human GST-AMPK α2β1γ1) | fold AMPK activation relative to vehicle (human GST-AMPK α1β2γ1) | reduction of activating potency on loss of β1-Ser108 phosphorylation via exchange for Ala [1]
COCCc1cccc(-c2nc3nc(Oc4ccc(C)c(C(=O)O)c4)[nH]c3cc2Cl)c1 [MSG008, 5-((6-Chloro-5-(3-(2-methoxyethyl)phenyl)-1H-imidazo[4,5-b]pyridin-2-yl)oxy)-2-methylbenzoic acid] | ≤ 1.3 fold | ≤ 1.3 fold | ≤ 1.3 fold | ≤ 1.3 fold | –
Cc1ccc(Oc2nc3cc(-c4ccc5c(ccn5C)c4)c(Cl)cc3[nH]2)cc1C(=O)O [compound 991] | – | – | – | – | 40 fold
